Results from patent US11098044B2, “Imidazopyridinyl compounds and use thereof for treatment of neurodegenerative disorders” (1ST Biotherapeutics, Inc., priority 2019, dated 2021).

Columns and labels:
Assay type in all cases: biochemical
[1] = target: c-Abl (His-tagged recombinant human ABL1) (Homo sapiens (Human), UniProt P00519); assay: c-abl Kinase Assay (ADP-Glo); details: ATP (25 μM), Abltide substrate
Description: ADP-Glo assay kit was purchased from Promega. Magnesium chloride (MgCl2), bovine serum albumin (BSA), ethylene glycol-bis(p-aminoethyl ether)-N,N,N′,N′-tetraacetic acid (EGTA), triton X-100, 1,4-dithiothreitol (DTT) and dimethyl sulfoxide (DMSO) were purchased from Sigma-Aldrich. HEPES buffer was purchased from Gibco. ABL1 kinase and Abltide were purchased from Signalchem.
c-Abl kinase activity was measured by Promega's ADP-Glo™ Assay. In this assay, His-tagged recombinant human ABL1 (0.25 ng/μl) is incubated with 5 μL of compounds (0.5% DMSO), 5 μL of Abltide (0.01 μg/μl) and 5 μL of ATP (25 μM) in buffer (50 mM HEPES, 7.5; 10 mM MgCl2; 1 mM EGTA; 0.05% BSA; 0.01% Triton X-100; 2 mM DTT). The assay was started by incubating the reaction mixture in a 96-well plate at 30° C. for 30-min. After the incubation, 25 μL ADP-Glo reagent was added and the reaction was incubated at room temperature for 40-min to stop the reaction and degrade residual ATP. The ADP product was then converted to ATP by adding 50 μL per well of detection reagent. Luminescence was detected after 30-min room temperature incubation with the Molecular device I3X plate reader. The IC50 values were calculated from a series of percent inhibition values determined at a range of inhibitor concentration using software routines as implemented in the GraphPad Prism 7 software and Sigma Plot 13.0.

LRRK2 (WT) = LRRK2 (WT) (Homo sapiens (Human), UniProt Q5S007); assay: LRRK2 Kinase Assay (Adapta); details: 70 μM ATP, LRRKtide substrate
Chain of LRRK2 (WT) (Q5S007 whole entry): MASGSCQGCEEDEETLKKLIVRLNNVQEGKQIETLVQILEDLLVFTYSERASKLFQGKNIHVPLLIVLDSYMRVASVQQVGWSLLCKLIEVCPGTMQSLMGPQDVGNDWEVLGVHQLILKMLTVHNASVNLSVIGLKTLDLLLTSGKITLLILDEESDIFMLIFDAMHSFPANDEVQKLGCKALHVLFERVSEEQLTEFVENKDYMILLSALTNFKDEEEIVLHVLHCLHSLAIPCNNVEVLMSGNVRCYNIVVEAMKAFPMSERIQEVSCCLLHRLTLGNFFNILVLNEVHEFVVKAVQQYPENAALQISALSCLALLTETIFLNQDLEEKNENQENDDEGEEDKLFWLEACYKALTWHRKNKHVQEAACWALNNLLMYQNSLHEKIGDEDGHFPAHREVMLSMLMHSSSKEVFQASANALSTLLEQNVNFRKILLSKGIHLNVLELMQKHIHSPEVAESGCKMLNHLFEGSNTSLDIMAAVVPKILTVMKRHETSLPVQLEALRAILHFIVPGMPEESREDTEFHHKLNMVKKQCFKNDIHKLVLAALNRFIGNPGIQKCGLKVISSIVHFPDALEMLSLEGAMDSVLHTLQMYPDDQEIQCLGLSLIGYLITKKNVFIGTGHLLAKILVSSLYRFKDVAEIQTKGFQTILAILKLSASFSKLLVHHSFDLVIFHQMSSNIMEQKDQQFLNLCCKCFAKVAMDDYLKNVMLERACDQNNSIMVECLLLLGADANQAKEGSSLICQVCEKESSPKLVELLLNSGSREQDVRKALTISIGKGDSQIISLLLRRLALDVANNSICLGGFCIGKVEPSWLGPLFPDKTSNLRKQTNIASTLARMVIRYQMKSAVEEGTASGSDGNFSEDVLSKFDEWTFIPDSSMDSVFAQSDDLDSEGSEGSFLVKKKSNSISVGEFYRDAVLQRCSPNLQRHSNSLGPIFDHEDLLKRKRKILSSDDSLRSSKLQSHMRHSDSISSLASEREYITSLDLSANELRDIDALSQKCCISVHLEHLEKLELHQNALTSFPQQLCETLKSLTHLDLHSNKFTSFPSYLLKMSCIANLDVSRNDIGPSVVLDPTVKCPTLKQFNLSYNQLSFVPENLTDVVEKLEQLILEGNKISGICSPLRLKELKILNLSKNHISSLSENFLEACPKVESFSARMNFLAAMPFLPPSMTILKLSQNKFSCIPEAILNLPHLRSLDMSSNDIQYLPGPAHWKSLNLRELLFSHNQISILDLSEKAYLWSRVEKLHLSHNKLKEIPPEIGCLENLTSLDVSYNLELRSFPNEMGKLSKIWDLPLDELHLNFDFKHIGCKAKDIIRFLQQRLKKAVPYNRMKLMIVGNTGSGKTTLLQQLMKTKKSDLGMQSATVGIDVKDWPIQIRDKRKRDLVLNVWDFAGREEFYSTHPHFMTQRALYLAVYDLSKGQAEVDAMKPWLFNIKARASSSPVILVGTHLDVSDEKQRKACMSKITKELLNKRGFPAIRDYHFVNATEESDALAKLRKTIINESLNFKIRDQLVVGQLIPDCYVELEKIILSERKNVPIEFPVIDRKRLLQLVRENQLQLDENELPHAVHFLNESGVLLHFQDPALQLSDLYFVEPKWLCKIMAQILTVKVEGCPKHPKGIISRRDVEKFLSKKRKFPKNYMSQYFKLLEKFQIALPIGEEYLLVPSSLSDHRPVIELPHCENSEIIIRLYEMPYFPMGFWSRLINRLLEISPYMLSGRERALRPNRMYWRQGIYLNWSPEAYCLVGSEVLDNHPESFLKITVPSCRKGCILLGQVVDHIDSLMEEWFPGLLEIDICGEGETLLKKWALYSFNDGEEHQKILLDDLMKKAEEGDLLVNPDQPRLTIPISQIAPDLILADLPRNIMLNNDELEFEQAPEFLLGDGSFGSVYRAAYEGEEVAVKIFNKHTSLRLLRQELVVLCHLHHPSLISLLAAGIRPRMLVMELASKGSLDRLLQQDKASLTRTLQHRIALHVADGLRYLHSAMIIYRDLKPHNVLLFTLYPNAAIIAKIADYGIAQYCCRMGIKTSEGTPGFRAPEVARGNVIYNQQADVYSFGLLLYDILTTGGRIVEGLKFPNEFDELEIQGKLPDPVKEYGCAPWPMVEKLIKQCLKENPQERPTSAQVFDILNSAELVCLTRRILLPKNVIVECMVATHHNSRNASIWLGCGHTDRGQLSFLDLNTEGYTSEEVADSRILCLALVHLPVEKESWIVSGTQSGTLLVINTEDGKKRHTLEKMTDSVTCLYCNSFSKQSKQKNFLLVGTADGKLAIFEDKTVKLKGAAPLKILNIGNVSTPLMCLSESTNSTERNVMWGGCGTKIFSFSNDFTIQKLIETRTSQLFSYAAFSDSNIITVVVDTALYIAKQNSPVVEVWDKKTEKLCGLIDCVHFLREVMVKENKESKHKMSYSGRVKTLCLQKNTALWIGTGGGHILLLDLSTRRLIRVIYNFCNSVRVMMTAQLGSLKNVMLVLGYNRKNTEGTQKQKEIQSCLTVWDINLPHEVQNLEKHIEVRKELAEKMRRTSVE
Description: (§1) The LRRK2 and LRRK2 G2019S kinase assays were performed using the Adapta™ technology in ThermoFisher Scientific. This experiment was carried out according to the supplier's protocol. Briefly, assay conditions were as follows. The mixture of substrate (LRRKtide) and each kinase was prepared in 50 mM Tris pH 8.5, 0.01% BRIJ-35, 10 mM MgCl2, 1 mM EGTA, 0.02% NaN3. Assays were performed in the presence of 70 μM ATP and 100 μM ATP (KmATP) in LRRK2 and LRRK2 G2019S, respectively. The reaction was progressed at room temperature for 1 hour. Upon completion of kinase reaction, 5 μL of Detection Mix was added and after 60 min incubation time, the emission ratio of 665/615 nm was calculated.

LRRK2 G2019S = LRRK2 G2019S (Homo sapiens (Human), UniProt Q5S007, G2019S); assay: LRRK2 G2019S Kinase Assay (Adapta); details: 100 μM ATP, LRRKtide substrate; read-out: LRRK2_G2019S IC50
Chain of LRRK2 G2019S (Q5S007 whole entry G2019S): as the sequence (Q5S007 whole entry) above, with G2019S counted along it
Description: as §1

Chain of c-Abl (His-tagged recombinant human ABL1) (P00519 whole entry): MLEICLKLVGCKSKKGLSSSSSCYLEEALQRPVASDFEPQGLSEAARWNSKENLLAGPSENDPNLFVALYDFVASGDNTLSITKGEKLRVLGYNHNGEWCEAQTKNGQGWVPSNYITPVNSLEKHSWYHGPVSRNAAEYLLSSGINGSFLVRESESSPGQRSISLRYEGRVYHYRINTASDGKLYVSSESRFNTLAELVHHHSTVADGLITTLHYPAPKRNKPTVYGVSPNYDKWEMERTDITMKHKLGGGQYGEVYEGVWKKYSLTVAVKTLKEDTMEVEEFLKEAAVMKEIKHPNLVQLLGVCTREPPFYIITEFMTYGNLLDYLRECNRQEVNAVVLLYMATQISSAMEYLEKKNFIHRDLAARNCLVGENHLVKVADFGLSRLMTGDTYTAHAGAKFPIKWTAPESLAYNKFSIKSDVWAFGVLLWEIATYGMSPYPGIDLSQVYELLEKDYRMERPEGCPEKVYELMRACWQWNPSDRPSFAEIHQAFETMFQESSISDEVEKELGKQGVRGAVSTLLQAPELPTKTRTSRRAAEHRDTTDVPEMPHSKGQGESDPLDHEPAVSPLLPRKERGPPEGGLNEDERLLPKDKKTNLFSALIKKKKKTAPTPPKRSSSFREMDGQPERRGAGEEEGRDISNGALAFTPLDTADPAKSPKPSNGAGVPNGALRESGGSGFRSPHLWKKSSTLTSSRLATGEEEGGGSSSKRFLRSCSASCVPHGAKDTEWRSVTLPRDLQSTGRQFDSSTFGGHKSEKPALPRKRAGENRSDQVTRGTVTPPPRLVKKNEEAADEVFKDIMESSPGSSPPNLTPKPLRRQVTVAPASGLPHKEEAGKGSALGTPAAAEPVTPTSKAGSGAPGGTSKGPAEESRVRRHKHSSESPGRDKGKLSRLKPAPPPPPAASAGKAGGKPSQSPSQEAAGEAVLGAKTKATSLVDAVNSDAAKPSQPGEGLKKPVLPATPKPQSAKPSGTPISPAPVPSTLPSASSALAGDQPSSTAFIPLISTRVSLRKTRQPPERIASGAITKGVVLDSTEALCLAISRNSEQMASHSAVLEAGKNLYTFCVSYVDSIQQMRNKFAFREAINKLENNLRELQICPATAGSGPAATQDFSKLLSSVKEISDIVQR

Compound	IC50 [1]	IC50 (LRRK2 (WT))	IC50 (LRRK2 G2019S)
Cc1cccc(F)c1-c1ccc2nc(NC(=O)[C@@H]3C[C@@H]3F)c(Cl)n2c1 [Example 4, (1S,2S)—N-(3-chloro-6-(2-fluoro-6-methylphenyl)imidazo[1,2-a]pyridin-2-yl)-2-fluorocyclopropane-1-carboxamide]	0.01 to 0.1 µM	> 1 µM	0.101 to 1 µM
Cc1ccncc1-c1ccc2nc(NC(=O)[C@@H]3C[C@@H]3F)c(C)n2c1 [Example 5, (1S,2S)-2-fluoro-N-(3-methyl-6-(4-methylpyridin-3-yl)imidazo[1,2-a]pyridin-2-yl)cyclopropane-1-carboxamide]	0.101 to 1 µM	> 1 µM	> 1 µM
Cc1ccncc1-c1ccc2nc(NC(=O)[C@@H]3C[C@@H]3F)cn2c1 [Example 6, (1S,2S)-2-fluoro-N-(6-(4-methylpyridin-3-yl)imidazo[1,2-a]pyridin-2-yl)cyclopropane-1-carboxamide]	0.01 to 0.1 µM	0.101 to 1 µM	0.101 to 1 µM
Cc1ccncc1-c1ccc2nc(NC(=O)[C@@H]3C[C@@H]3F)c(Cl)n2c1 [Example 7, (1S,2S)—N-(3-chloro-6-(4-methylpyridin-3-yl)imidazo[1,2-a]pyridin-2-yl)-2-fluorocyclopropane-1-carboxamide]	0.101 to 1 µM	> 1 µM	> 1 µM
Cc1c(F)cccc1-c1ccc2nc(NC(=O)[C@@H]3C[C@@H]3F)c(C)n2c1 [Example 8, (1S,2S)-2-fluoro-N-(6-(3-fluoro-2-methylphenyl)-3-methylimidazo[1,2-a]pyridin-2-yl)cyclopropane-1-carboxamide]	0.01 to 0.1 µM	0.101 to 1 µM	0.101 to 1 µM
Cc1cccc(F)c1-c1ccc2nc(NC(=O)[C@@H]3C[C@@H]3F)c(C)n2c1 [Example 9, (1S,2S)-2-fluoro-N-(6-(2-fluoro-6-methylphenyl)-3-methylimidazo[1,2-a]pyridin-2-yl)cyclopropane-1-carboxamide]	0.01 to 0.1 µM	0.101 to 1 µM	0.101 to 1 µM
Cc1c(F)cncc1-c1ccc2nc(NC(=O)[C@@H]3C[C@@H]3F)c(C)n2c1 [Example 10, (1S,2S)-2-fluoro-N-(6-(5-fluoro-4-methylpyridin-3-yl)-3-methylimidazo[1,2-a]pyridin-2-yl)cyclopropane-1-carboxamide]	0.101 to 1 µM	> 1 µM	> 1 µM
Cc1ccc(F)cc1-c1ccc2nc(NC(=O)[C@@H]3C[C@@H]3F)cn2c1 [Example 11, (1S,2S)-2-fluoro-N-(6-(5-fluoro-2-methylphenyl)imidazo[1,2-a]pyridin-2-yl)cyclopropane-1-carboxamide]	< 0.01 µM	0.01 to 0.1 µM	0.01 to 0.1 µM
Cc1ccc(O)cc1-c1ccc2nc(NC(=O)[C@@H]3C[C@@H]3F)cn2c1 [Example 12, (1S,2S)-2-fluoro-N-(6-(5-hydroxy-2-methylphenyl)imidazo[1,2-a]pyridin-2-yl)cyclopropane-1-carboxamide]	< 0.01 µM	0.01 to 0.1 µM	0.01 to 0.1 µM
COC(=O)c1ccc(C)c(-c2ccc3nc(NC(=O)[C@@H]4C[C@@H]4F)cn3c2)c1 [Example 13, methyl 3-(2-((1S,2S)-2-fluorocyclopropane-1-carboxamido)imidazo[1,2-a]pyridin-6-yl)-4-methylbenzoate]	< 0.01 µM	> 1 µM	> 1 µM
Cc1c(F)cncc1-c1ccc2nc(NC(=O)[C@@H]3C[C@@H]3F)cn2c1 [Example 14, (1S,2S)-2-fluoro-N-(6-(5-fluoro-4-methylpyridin-3-yl)imidazo[1,2-a]pyridin-2-yl)cyclopropane-1-carboxamide]	< 0.01 µM	0.101 to 1 µM	0.101 to 1 µM
Cc1ccc2[nH]ccc2c1-c1ccc2nc(NC(=O)[C@@H]3C[C@@H]3F)cn2c1 [Example 15, (1S,2S)-2-fluoro-N-(6-(5-methyl-1H-indol-4-yl)imidazo[1,2-a]pyridin-2-yl)cyclopropane-1-carboxamide]	< 0.01 µM	< 0.01 µM	< 0.01 µM
Cc1c(F)cncc1-c1ccc2nc(NC(=O)[C@@H]3C[C@@H]3F)c(Cl)n2c1 [Example 16, (1S,2S)—N-(3-chloro-6-(5-fluoro-4-methylpyridin-3-yl)imidazo[1,2-a]pyridin-2-yl)-2-fluorocyclopropane-1-carboxamide]	0.101 to 1 µM	> 1 µM	> 1 µM
Cc1ccc(C#N)cc1-c1ccc2nc(NC(=O)[C@@H]3C[C@@H]3F)cn2c1 [Example 17, (1S,2S)—N-(6-(5-cyano-2-methylphenyl)imidazo[1,2-a]pyridin-2-yl)-2-fluorocyclopropane-1-carboxamide]	< 0.01 µM	0.101 to 1 µM	0.101 to 1 µM
O=C(Nc1cn2cc(-c3cc[nH]n3)ccc2n1)[C@@H]1C[C@@H]1F [Example 18, (1S,2S)—N-(6-(1H-pyrazol-3-yl)imidazo[1,2-a]pyridin-2-yl)-2-fluorocyclopropane-1-carboxamide]	0.101 to 1 µM	0.101 to 1 µM	0.101 to 1 µM
Cc1c[nH]nc1-c1ccc2nc(NC(=O)[C@@H]3C[C@@H]3F)cn2c1 [Example 19, (1S,2S)-2-fluoro-N-(6-(4-methyl-1H-pyrazol-3-yl)imidazo[1,2-a]pyridin-2-yl)cyclopropane-1-carboxamide]	0.01 to 0.1 µM	0.101 to 1 µM	0.101 to 1 µM

Next, values leading:

IC50 [1]	IC50 (LRRK2 (WT))	IC50 (LRRK2 G2019S)	Compound
< 0.01 µM	< 0.01 µM	0.01 to 0.1 µM	Cc1c(O)cccc1-c1ccc2nc(NC(=O)[C@@H]3C[C@@H]3F)cn2c1 [Example 20, (1S,2S)-2-fluoro-N-(6-(3-hydroxy-2-methylphenyl)imidazo[1,2-a]pyridin-2-yl)cyclopropane-1-carboxamide]
0.01 to 0.1 µM	0.101 to 1 µM	0.101 to 1 µM	O=C(Nc1cn2cc(-c3cnccc3Cl)ccc2n1)[C@@H]1C[C@@H]1F [Example 21, (1S,2S)—N-(6-(4-chloropyridin-3-yl)imidazo[1,2-a]pyridin-2-yl)-2-fluorocyclopropane-1-carboxamide]
< 0.01 µM	0.101 to 1 µM	0.101 to 1 µM	Cc1cccc(-c2ccc3nc(NC(=O)[C@@H]4C[C@@H]4F)cn3c2)c1C [Example 22, (1S,2S)—N-(6-(2,3-dimethylphenyl)imidazo[1,2-a]pyridin-2-yl)-2-fluorocyclopropane-1-carboxamide]
< 0.01 µM	0.101 to 1 µM	0.01 to 0.1 µM	Cc1ccc(N)cc1-c1ccc2nc(NC(=O)[C@@H]3C[C@@H]3F)cn2c1 [Example 23, (1S,2S)—N-(6-(5-amino-2-methylphenyl)imidazo[1,2-a]pyridin-2-yl)-2-fluorocyclopropane-1-carboxamide]
< 0.01 µM	0.101 to 1 µM	0.01 to 0.1 µM	CNc1ccc(C)c(-c2ccc3nc(NC(=O)[C@@H]4C[C@@H]4F)cn3c2)c1 [Example 24, (1S,2S)-2-fluoro-N-(6-(2-methyl-5-(methylamino)phenyl)imidazo[1,2-a]pyridin-2-yl)cyclopropane-1-carboxamide]
0.01 to 0.1 µM	> 1 µM	0.101 to 1 µM	CC(=O)Nc1ccc(C)c(-c2ccc3nc(NC(=O)[C@@H]4C[C@@H]4F)cn3c2)c1 [Example 25, (1S,2S)—N-(6-(5-acetamido-2-methylphenyl)imidazo[1,2-a]pyridin-2-yl)-2-fluorocyclopropane-1-carboxamide]
< 0.01 µM	0.101 to 1 µM	0.101 to 1 µM	Cc1ccc(Cl)cc1-c1ccc2nc(NC(=O)[C@@H]3C[C@@H]3F)cn2c1 [Example 26, (1S,2S)—N-(6-(5-chloro-2-methylphenyl)imidazo[1,2-a]pyridin-2-yl)-2-fluorocyclopropane-1-carboxamide]
< 0.01 µM	0.101 to 1 µM	0.01 to 0.1 µM	O=C(Nc1cn2cc(-c3cnc4[nH]ccc4c3)ccc2n1)[C@@H]1C[C@@H]1F [Example 27, (1S,2S)—N-(6-(1H-pyrrolo[2,3-b]pyridin-5-yl)imidazo[1,2-a]pyridin-2-yl)-2-fluorocyclopropane-1-carboxamide]
< 0.01 µM	0.101 to 1 µM	0.101 to 1 µM	Cc1ccc(-c2cc[nH]n2)cc1-c1ccc2nc(NC(=O)[C@@H]3C[C@@H]3F)cn2c1 [Example 28, (1S,2S)-2-fluoro-N-(6-(2-methyl-5-(1H-pyrazol-3-yl)phenyl)imidazo[1,2-a]pyridin-2-yl)cyclopropane-1-carboxamide]
